We go through 16 molecules from patent US6409810B1, “Water-soluble trisazo compounds, aqueous ink composition and colored article” (Nippon Kayaku Kabushiki Kaisha, priority 1997, dated 2002).

Holding throughout (format): physicochemical
Data set [1] is described as follows: Color rendering property (hue change under tungsten light versus standard light source, visual). Also on record: key: ∘: Change in hue was small.; Δ: Change in hue was somewhat large.; X: Change in hue was large. Conditions: hue change under tungsten light compared with standard light source. The procedure: (§1) A liquid having the following formulation was prepared and passed through a 0.45 μm membrane filter to obtain an aqueous ink composition for ink jet printers.
(§2) An ink jet recording was conducted on three different papers, i.e. plain papers (Canon printer paper A4 (TLB5A4S)), ink jet papers A (Color BJ Paper LC 101; ex. Canon) and ink jet papers B (coated papers for ink jet printer STX73 A4; ex. Sharp) by means of an ink jet printer (trade name NOVA JET III; ex. ENCAD). The thus-recorded images were tested with respect to the resistances to light and water and a color rendering property.
Discoloration was judged by the visual examination by comparing the hue change under the tungsten light with that under the standard light source.

A short description of data set [2]: Test for resistance to water of the recorded images (immersion in water, visual examination of dropout). Also on record: key to water fastness plain paper: ∘: Less amount of the compound was dropped out.; Δ: About half of the compound was dropped out.; X: Large amount of the compound was dropped out. Conditions: immersed in water 2 minutes with mild stirring, dried; for water fastness ink jet paper A: ink jet print on ink jet paper A; for water fastness ink jet paper B: ink jet print on ink jet paper B; for water fastness plain paper: ink jet print on plain paper. The procedure: as §1, §2
Test specimen was immersed in water contained in a beaker with mild stirring for 2 minutes and dried. Amount of the compound was observed by the visual examination before and after the immersion, and dropout of the compound was judged.

Data set [3] can be described thus: Test for resistance to light of the recorded images (carbon arc fade meter, Blue Scale JIS L-0841). Conditions: 20 hours carbon arc fade meter; for light fastness (rank) ink jet paper A: ink jet print on ink jet paper A (Color BJ Paper LC 101, Canon); for light fastness (rank) ink jet paper B: ink jet print on ink jet paper B (coated paper STX73 A4, Sharp); for light fastness (rank) plain paper: ink jet print on plain paper (Canon TLB5A4S). The procedure:
as §1, §2
The recorded images were irradiated with light for 20 hours by means of a carbon arc fade meter (ex. SUGA Shikenkisha). Light fastness was judged according to the Blue Scale for light resistance standard as defined in JIS L-0841.

For `COc1cc(N=Nc2cc(S(=O)(=O)O)cc3cc(S(=O)(=O)O)cc(O)c23)c(C)cc1N=Nc1c(S(=O)(=O)O)cc2ccc(N=Nc3ccc(N)cc3O)cc2c1O` [compound 0002], the color rendering property result in data set [1] is listed as “◯”. For the same molecule, in data set [2], the “water fastness ink jet paper A” value was “◯”, the “water fastness ink jet paper B” value was “◯” and the “water fastness plain paper” value is reported as “Δ˜◯”. Besides, in data set [3], the “light fastness (rank) ink jet paper A” value came out at 4 rank, the “light fastness (rank) ink jet paper B” value worked out at 5 rank and the “light fastness (rank) plain paper” value is 4-5 rank.

With `Nc1cc(N)c(S(=O)(=O)O)cc1N=Nc1ccc2cc(S(=O)(=O)O)c(N=Nc3ccc(N=Nc4cc(S(=O)(=O)O)cc5cc(S(=O)(=O)O)cc(O)c45)c4ccc(S(=O)(=O)O)cc34)c(O)c2c1` [compound 0027], the color rendering property entry in data set [1] is on record as “◯”. For the same molecule, in data set [2], the “water fastness ink jet paper A” value was “◯”, the “water fastness ink jet paper B” value was “◯” and the “water fastness plain paper” value is given as “x˜Δ”. Also, in data set [3], the “light fastness (rank) ink jet paper A” value was found to be 4 rank, the “light fastness (rank) ink jet paper B” value amounted to 5 rank and the “light fastness (rank) plain paper” value was found to be 5 rank.

As to `Nc1ccc2cc(S(=O)(=O)O)c(N=Nc3ccc(N=Nc4cc(C(=O)O)cc(C(=O)O)c4)c4ccccc34)c(O)c2c1` [compound 2, reference compound], in data set [2], the “water fastness ink jet paper A” value is recorded as “◯”, the “water fastness ink jet paper B” value is “◯” and the “water fastness plain paper” value was “◯”. Moreover, in data set [3], the “light fastness (rank) ink jet paper A” value was found to be 2 rank, the “light fastness (rank) ink jet paper B” value was 4 rank and the “light fastness (rank) plain paper” value was found to be 4 rank.

As to `O=S(=O)(O)c1cc(O)c2c(N=Nc3ccc(N=Nc4c(S(=O)(=O)O)cc5ccc(N=Nc6ccc(O)cc6O)cc5c4O)c4cc(S(=O)(=O)O)ccc34)cc(S(=O)(=O)O)cc2c1` [compound 0025], the color rendering property entry in data set [1] is given as “◯”. Further, in data set [2], the “water fastness ink jet paper A” value is recorded as “◯”, the “water fastness ink jet paper B” value is recorded as “◯” and the “water fastness plain paper” value is “x˜Δ”. Besides, in data set [3], the “light fastness (rank) ink jet paper A” value is given as 3 rank, the “light fastness (rank) ink jet paper B” value was found to be 4 rank and the “light fastness (rank) plain paper” value was 4-5 rank.

In the case of `Nc1cc2c(O)c(N=Nc3ccc(N=Nc4ccc(S(=O)(=O)[O-])cc4)c4ccc(S(=O)(=O)[O-])cc34)c(S(=O)(=O)[O-])cc2cc1S(=O)(=O)[O-].[Na+].[Na+].[Na+].[Na+]` [compound 1, C.I. Food Black 2, reference compound], the color rendering property entry in data set [1] is on record as “Δ”. Besides, the “water fastness ink jet paper A” value in data set [2] was “◯”. Besides, in data set [3], the “light fastness (rank) ink jet paper A” value stood at 3 rank, the “light fastness (rank) ink jet paper B” value is 4-5 rank and the “light fastness (rank) plain paper” value was 4-5 rank.

With `COCCOc1cc(N=Nc2cc(S(=O)(=O)O)cc3cc(S(=O)(=O)O)cc(O)c23)c(NC(C)=O)cc1N=Nc1c(S(=O)(=O)O)cc2ccc(N=Nc3ccc(N)cc3N)cc2c1O` [compound 0019], the color rendering property entry in data set [1] was “◯”. Further, in data set [2], the “water fastness ink jet paper A” value is “◯”, the “water fastness ink jet paper B” value was “◯” and the “water fastness plain paper” value is reported as “Δ˜◯”. Besides, in data set [3], the “light fastness (rank) ink jet paper A” value is given as 5 rank, the “light fastness (rank) ink jet paper B” value is given as 5 rank and the “light fastness (rank) plain paper” value amounted to 5 rank.

Turning to `COCCOc1cc(N=Nc2cc(S(=O)(=O)O)cc3cc(S(=O)(=O)O)cc(O)c23)c(N)cc1N=Nc1c(S(=O)(=O)O)cc2ccc(N=Nc3cc(S(=O)(=O)O)c(N)cc3N)cc2c1O` [compound 0051], the color rendering property entry in data set [1] is reported as “◯”. Also, in data set [2], the “water fastness ink jet paper A” value is reported as “◯”, the “water fastness ink jet paper B” value was “◯” and the “water fastness plain paper” value is given as “◯”. In data set [3], the “light fastness (rank) ink jet paper A” value amounted to 4 rank, the “light fastness (rank) ink jet paper B” value is 5 rank and the “light fastness (rank) plain paper” value was 4-5 rank.

On to `COc1cc(N=Nc2cc(S(=O)(=O)O)cc3cc(S(=O)(=O)O)cc(O)c23)c(NC(C)=O)cc1N=Nc1c(S(=O)(=O)O)cc2ccc(N=Nc3ccc(O)cc3O)cc2c1O` [compound 0012], for which the color rendering property entry in data set [1] was “◯”. Besides, in data set [2], the “water fastness ink jet paper A” value is listed as “◯”, the “water fastness ink jet paper B” value is given as “◯” and the “water fastness plain paper” value was “Δ”. In data set [3], the “light fastness (rank) ink jet paper A” value is given as 3-4 rank, the “light fastness (rank) ink jet paper B” value is recorded as 4 rank and the “light fastness (rank) plain paper” value is on record as 4-5 rank.

For `COCCOc1cc(N=Nc2cc(S(=O)(=O)O)cc3cc(S(=O)(=O)O)cc(O)c23)c(NC(C)=O)cc1N=Nc1c(S(=O)(=O)O)cc2ccc(N=Nc3cc(S(=O)(=O)O)c(N)cc3N)cc2c1O` [compound 0022], in data set [1], the color rendering property entry is given as “◯”. Moreover, in data set [2], the “water fastness ink jet paper A” value is reported as “◯”, the “water fastness ink jet paper B” value was “◯” and the “water fastness plain paper” value is listed as “Δ˜◯”. In data set [3], the “light fastness (rank) ink jet paper A” value worked out at 5 rank, the “light fastness (rank) ink jet paper B” value is on record as 5 rank and the “light fastness (rank) plain paper” value was 5 rank.

For the molecule `COCCOc1cc(N=Nc2cc(S(=O)(=O)O)cc3cc(S(=O)(=O)O)cc(O)c23)c(NC(C)=O)cc1N=Nc1c(S(=O)(=O)O)cc2ccc(N=Nc3ccc(N)cc3O)cc2c1O` [compound 0020], in data set [1], the color rendering property result was “◯”. In addition, in data set [2], the “water fastness ink jet paper A” value is on record as “◯”, the “water fastness ink jet paper B” value is “◯” and the “water fastness plain paper” value is “Δ˜◯”. In data set [3], the “light fastness (rank) ink jet paper A” value came to 4 rank, the “light fastness (rank) ink jet paper B” value is listed as 5 rank and the “light fastness (rank) plain paper” value was 4-5 rank.

On to `COc1cc(N=Nc2cc(S(=O)(=O)O)cc3cc(S(=O)(=O)O)cc(O)c23)c(N)cc1N=Nc1c(S(=O)(=O)O)cc2ccc(N=Nc3cc(S(=O)(=O)O)c(N)cc3N)cc2c1O` [compound 0048], for which the color rendering property result in data set [1] is “◯”. Besides, in data set [2], the “water fastness ink jet paper A” value was “◯”, the “water fastness ink jet paper B” value is given as “◯” and the “water fastness plain paper” value is “◯”. For the same molecule, in data set [3], the “light fastness (rank) ink jet paper A” value was found to be 4 rank, the “light fastness (rank) ink jet paper B” value is reported as 5 rank and the “light fastness (rank) plain paper” value was 4-5 rank.

`COc1cc(N=Nc2cc(S(=O)(=O)O)cc3cc(S(=O)(=O)O)cc(O)c23)c(NC(C)=O)cc1N=Nc1c(S(=O)(=O)O)cc2cc(S(=O)(=O)O)c(N=Nc3ccc(O)cc3O)cc2c1O` [compound 0232]: in data set [1], the color rendering property result is recorded as “◯”. Moreover, in data set [2], the “water fastness ink jet paper A” value is reported as “◯”, the “water fastness ink jet paper B” value is listed as “◯” and the “water fastness plain paper” value is reported as “Δ˜◯”. For the same molecule, in data set [3], the “light fastness (rank) ink jet paper A” value stood at 4 rank, the “light fastness (rank) ink jet paper B” value worked out at 4 rank and the “light fastness (rank) plain paper” value amounted to 4 rank.

Take `COc1cc(N=Nc2cc(S(=O)(=O)O)cc3cc(S(=O)(=O)O)cc(O)c23)c(NC(C)=O)cc1N=Nc1c(S(=O)(=O)O)cc2ccc(N=Nc3cc(S(=O)(=O)O)c(N)cc3N)cc2c1O` [compound 0014]: the color rendering property result in data set [1] is given as “◯”. In addition, in data set [2], the “water fastness ink jet paper A” value is “◯”, the “water fastness ink jet paper B” value was “◯” and the “water fastness plain paper” value is on record as “Δ”. In addition, in data set [3], the “light fastness (rank) ink jet paper A” value amounted to 5 rank, the “light fastness (rank) ink jet paper B” value was found to be 5 rank and the “light fastness (rank) plain paper” value came out at 5 rank.

With `COc1cc(N=Nc2cc(S(=O)(=O)O)cc3cc(S(=O)(=O)O)cc(O)c23)c(C)cc1N=Nc1c(S(=O)(=O)O)cc2ccc(N=Nc3ccc(O)cc3O)cc2c1O` [compound 0003], the color rendering property entry in data set [1] was “◯”. Further, in data set [2], the “water fastness ink jet paper A” value was “◯”, the “water fastness ink jet paper B” value is “◯” and the “water fastness plain paper” value was “Δ”. Moreover, in data set [3], the “light fastness (rank) ink jet paper A” value is listed as 3-4 rank, the “light fastness (rank) ink jet paper B” value was 4-5 rank and the “light fastness (rank) plain paper” value is 4-5 rank.

With `COc1cc(N=Nc2cc(S(=O)(=O)O)cc3cc(S(=O)(=O)O)cc(O)c23)c(C)cc1N=Nc1c(S(=O)(=O)O)cc2ccc(N=Nc3ccc(NCC(=O)O)cc3NCC(=O)O)cc2c1O` [compound 0007], in data set [1], the color rendering property entry was “◯”. Also, in data set [2], the “water fastness ink jet paper A” value is recorded as “◯”, the “water fastness ink jet paper B” value is recorded as “◯” and the “water fastness plain paper” value is recorded as “◯”. Also, in data set [3], the “light fastness (rank) ink jet paper A” value was 3-4 rank, the “light fastness (rank) ink jet paper B” value came to 4 rank and the “light fastness (rank) plain paper” value came to 4 rank.

Consider `COc1cc(N=Nc2cc(S(=O)(=O)O)cc3cc(S(=O)(=O)O)cc(O)c23)c(C)cc1N=Nc1c(S(=O)(=O)O)cc2ccc(N=Nc3ccc(N)cc3N)cc2c1O` [compound 0001], for which the color rendering property entry in data set [1] was “◯”. For the same molecule, in data set [2], the “water fastness ink jet paper A” value was “◯”, the “water fastness ink jet paper B” value is on record as “◯” and the “water fastness plain paper” value was “Δ˜◯”. Also, in data set [3], the “light fastness (rank) ink jet paper A” value is given as 4-5 rank, the “light fastness (rank) ink jet paper B” value was found to be 5 rank and the “light fastness (rank) plain paper” value amounted to 5 rank.
